Test system: tau
Assay: ^11C-PBB3 autoradiography and competition on large frozen AD brain sections
Assay type: binding, human
Set-up: NSP Binding: unit not given here
Experimental: Adjacent sections were used for autoradiography with ^11C-THK5351, ^11C-PBB3, and ^18F-T807. The frozen sections were allowed to reach room temperature, incubated for 30 minutes at room temperature with ^11C-THK5351 (0.4–0.56 nM; […]; specific activity 442–794 GBq/μmol) or for 55 minutes at room temperature with ^18F-T807 (0.04 nM; specific activity 281 GBq/μmol). We used 10 μM unlabeled THK5351, 10 μM unlabeled PBB3, and 10 μM unlabeled T807 to determine the extent of nonspecific binding for each tracer. The sections were rinsed three times for 5 minutes each with cold binding buffer, followed by a quick dip in cold distilled water. The sections were dried and exposed for 1 h (for ^11C-THK5351 and ^11C-PBB3) or for 3 h (^18 F-T807) on a phosphor imaging plate and then read using the BAS-2500 phosphor imager.
For all the autoradiography studies, the regions of interest were drawn manually on the autoradiogram using multigauge software and were used for the semiquantitative analyses. Photostimulated luminescence per square millimeter (PSL/mm^2) was transformed to picomoles per cubic millimeter using a transformation factor that took into account the resolution of the image, the pixel value for the concentration of ligand, and the thickness of the sections: (PSL/mm^2 value)/([pixel value per pmol] × [(resolution/1000)^2] × [cryosection thickness]/1000).

[1] = AD1, Basal ganglia, vs Unlabelled PBB3
[2] = AD1, Basal ganglia, vs Unlabelled T807
[3] = AD1, Frontal cortex, vs Unlabelled PBB3
[4] = AD1, Frontal cortex, vs Unlabelled T807
[5] = AD1, Frontal cortex, vs Unlabelled THK5351
[6] = AD1, Insula, vs Unlabelled PBB3
[7] = AD1, Insula, vs Unlabelled T807
[8] = AD1, Temporal cortex, vs Unlabelled PBB3
[9] = AD1, Temporal cortex, vs Unlabelled T807
[10] = AD1, Temporal cortex, vs Unlabelled THK5351
[11] = AD2, Basal ganglia, vs Unlabelled PBB3
[12] = AD2, Basal ganglia, vs Unlabelled T807
[13] = AD2, Basal ganglia, vs Unlabelled THK5351
[14] = AD2, Frontal cortex, vs Unlabelled PBB3
[15] = AD2, Frontal cortex, vs Unlabelled T807
[16] = AD2, Frontal cortex, vs Unlabelled THK5351
[17] = AD2, Insula, vs Unlabelled PBB3
[18] = AD2, Insula, vs Unlabelled T807
[19] = AD2, Insula, vs Unlabelled THK5351
[20] = AD2, Temporal cortex, vs Unlabelled PBB3
[21] = AD2, Temporal cortex, vs Unlabelled T807
[22] = AD2, Temporal cortex, vs Unlabelled THK5351
[23] = AD3, Basal ganglia, vs Unlabelled PBB3
[24] = AD3, Basal ganglia, vs Unlabelled T807
[25] = AD3, Basal ganglia, vs Unlabelled THK5351
[26] = AD3, Frontal cortex, vs Unlabelled PBB3
[27] = AD3, Frontal cortex, vs Unlabelled T807
[28] = AD3, Frontal cortex, vs Unlabelled THK5351
[29] = AD3, Insula, vs Unlabelled PBB3
[30] = AD3, Insula, vs Unlabelled T807
[31] = AD3, Insula, vs Unlabelled THK5351
[32] = AD3, Temporal cortex, vs Unlabelled PBB3
[33] = AD3, Temporal cortex, vs Unlabelled T807
[34] = AD3, Temporal cortex, vs Unlabelled THK5351

[11CH3]Nc1ccc(/C=C/C=C/c2nc3ccc(O)cc3s2)cn1 [^11C-PBB3, (5-((1E,3E)-4-(6-[^11C]methylamino)pyridin-3-yl)buta-1,3-dien-1-yl)benzo[d]thiazol-6-ol]
% of specific binding [1]: 50% | NSP Binding [1]: 2849 | Specific Binding [1]: 2796 | Total Binding [1]: 5645 | % of specific binding [2]: 20% | NSP Binding [2]: 3201 | Specific Binding [2]: 802 | Total Binding [2]: 4004 | % of specific binding [3]: 51% | NSP Binding [3]: 3317 | Specific Binding [3]: 3433 | Total Binding [3]: 6750 | % of specific binding [4]: 17% | NSP Binding [4]: 3919 | Specific Binding [4]: 782 | Total Binding [4]: 4701 | % of specific binding [5]: 22% | NSP Binding [5]: 1579 | Specific Binding [5]: 439 | Total Binding [5]: 2018 | % of specific binding [6]: 45% | NSP Binding [6]: 3353 | Specific Binding [6]: 2690 | Total Binding [6]: 6043 | % of specific binding [7]: 13% | NSP Binding [7]: 3842 | Specific Binding [7]: 566 | Total Binding [7]: 4409 | % of specific binding [8]: 41% | NSP Binding [8]: 3425 | Specific Binding [8]: 2352 | Total Binding [8]: 5777 | % of specific binding [9]: 4% | NSP Binding [9]: 4009 | Specific Binding [9]: 178 | Total Binding [9]: 4187 | % of specific binding [10]: 28% | NSP Binding [10]: 1569 | Specific Binding [10]: 596 | Total Binding [10]: 2164 | % of specific binding [11]: 47% | NSP Binding [11]: 3052 | Specific Binding [11]: 2700 | Total Binding [11]: 5752 | % of specific binding [12]: 21% | NSP Binding [12]: 2790 | Specific Binding [12]: 751 | Total Binding [12]: 3541 | % of specific binding [13]: 19% | NSP Binding [13]: 1517 | Specific Binding [13]: 367 | Total Binding [13]: 1884 | % of specific binding [14]: 51% | NSP Binding [14]: 3051 | Specific Binding [14]: 3187 | Total Binding [14]: 6238 | % of specific binding [15]: 15% | NSP Binding [15]: 3252 | Specific Binding [15]: 595 | Total Binding [15]: 3847 | % of specific binding [16]: 17% | NSP Binding [16]: 1619 | Specific Binding [16]: 341 | Total Binding [16]: 1960 | % of specific binding [17]: 48% | NSP Binding [17]: 3100 | Specific Binding [17]: 2827 | Total Binding [17]: 5927 | % of specific binding [18]: 21% | NSP Binding [18]: 2838 | Specific Binding [18]: 748 | Total Binding [18]: 3585 | % of specific binding [19]: 20% | NSP Binding [19]: 1580 | Specific Binding [19]: 400 | Total Binding [19]: 1979 | % of specific binding [20]: 59% | NSP Binding [20]: 2988 | Specific Binding [20]: 4222 | Total Binding [20]: 7210 | % of specific binding [21]: 12% | NSP Binding [21]: 3425 | Specific Binding [21]: 448 | Total Binding [21]: 3874 | % of specific binding [22]: 36% | NSP Binding [22]: 1506 | Specific Binding [22]: 831 | Total Binding [22]: 2336 | % of specific binding [23]: 48% | NSP Binding [23]: 2989 | Specific Binding [23]: 2786 | Total Binding [23]: 5775 | % of specific binding [24]: 13% | NSP Binding [24]: 2721 | Specific Binding [24]: 422 | Total Binding [24]: 3143 | % of specific binding [25]: 23% | NSP Binding [25]: 1577 | Specific Binding [25]: 481 | Total Binding [25]: 2058 | % of specific binding [26]: 56% | NSP Binding [26]: 3132 | Specific Binding [26]: 4039 | Total Binding [26]: 7171 | % of specific binding [27]: 21% | NSP Binding [27]: 3247 | Specific Binding [27]: 879 | Total Binding [27]: 4125 | % of specific binding [28]: 27% | NSP Binding [28]: 1832 | Specific Binding [28]: 678 | Total Binding [28]: 2511 | % of specific binding [29]: 46% | NSP Binding [29]: 3401 | Specific Binding [29]: 2848 | Total Binding [29]: 6249 | % of specific binding [30]: 8% | NSP Binding [30]: 3261 | Specific Binding [30]: 294 | Total Binding [30]: 3555 | % of specific binding [31]: 18% | NSP Binding [31]: 1815 | Specific Binding [31]: 405 | Total Binding [31]: 2220 | Total Binding (AD3, Temporal cortex, 0.4nM): 6400 pmol/mm^3 | % of specific binding [32]: 50% | NSP Binding [32]: 3203 | Specific Binding [32]: 3207 | Total Binding [32]: 6409 | % of specific binding [33]: 11% | NSP Binding [33]: 3217 | Specific Binding [33]: 396 | Total Binding [33]: 3612 | % of specific binding [34]: 18% | NSP Binding [34]: 1818 | Specific Binding [34]: 397 | Total Binding [34]: 2215
